Results as given in US20160193165A1, “NOVEL POLYMORPHS AND SALTS” (CHIESI FARMACEUTICI S.p.A., priority 2010, published 2016).

Experiments:
[1] = Thermodynamic solubility of salts in water; type: physicochemical; conditions: for Solubility: 37° C., pH 6.8-7.4, stirring 500 rpm, 24 hours
Procedure: Each of the sodium, potassium, L-Arg and L-Lys salts prepared as described above was dissolved in water at a temperature of 37° C., pH 6.8-7.4 at a stirring rate of 500 rpm for 24 hours.

[2] = Stability of salts on storage at room temperature and 80% relative humidity (XRPD); type: physicochemical; conditions: for changes in the XRPD pattern after storage: 7 days at room temperature and 80% relative humidity
Procedure: Each of the salts obtained was characterized by X-ray powder diffraction (XRPD), Thermogravimetric analysis (TGA), and Differential Scanning calorimetry (DSC). Furthermore, the stabilities of the sodium, potassium, L-Arginine and L-Lysine salts were tested by storage for 7 days at room temperature and 80% relative humidity.

Row | solubility in water (in words) [1] | Solubility [1] [mg/mL] | changes in the XRPD pattern after storage [2] | stability when stored under conditions of high humidity (in words) [2] | Compound
1 | excellent solubility | 36.6 | No changes | good stability | O=C(O)C1(c2ccc(-c3ccc(Cl)c(Cl)c3)c(F)c2)CC1 [L-Lysine, 1-(3′,4′-dichloro-2-fluorobiphenyl-4-yl)cyclopropanecarboxylic acid]
2 | excellent solubility | 6.3 | No changes | good stability | O=C(O)C1(c2ccc(-c3ccc(Cl)c(Cl)c3)c(F)c2)CC1 [Potassium, 1-(3′,4′-dichloro-2-fluorobiphenyl-4-yl)cyclopropanecarboxylic acid]
3 | excellent solubility | 20.4 | No changes | good stability | O=C(O)C1(c2ccc(-c3ccc(Cl)c(Cl)c3)c(F)c2)CC1 [Sodium, 1-(3′,4′-dichloro-2-fluorobiphenyl-4-yl)cyclopropanecarboxylic acid]
4 | excellent solubility | 15.2 | No changes | good stability | O=C(O)C1(c2ccc(-c3ccc(Cl)c(Cl)c3)c(F)c2)CC1 [L-Arginine, 1-(3′,4′-dichloro-2-fluorobiphenyl-4-yl)cyclopropanecarboxylic acid]
